ChEMBL document CHEMBL1148456, “Structure-based design and synthesis of non-nucleoside, potent, and orally bioavailable adenosine deaminase inhibitors” (J Med Chem, 2004)
Converted amounts (≈) assume the structure as drawn.

What was measured:
[1] = Oral bioavailability in rat (dose 10 mg/kg); assay type: ADME, organism-based; conditions: in vivo
[2] = Solubility was determined; assay type: physicochemical
[3] = Half-life in rat after po administration at a dose of 10 mg/kg; assay type: ADME, organism-based; set-up: dose 10 mg/kg, route oral; conditions: in vivo
[4] = (§1) In vitro clearance in rat liver microsomes; assay type: ADME, Microsome; conditions: read-out: Clearance
[5] = target: T1, Adenosine deaminase (Homo sapiens) (UniProt P00813); conditions: Rattus norvegicus
T1 sequence (whole entry): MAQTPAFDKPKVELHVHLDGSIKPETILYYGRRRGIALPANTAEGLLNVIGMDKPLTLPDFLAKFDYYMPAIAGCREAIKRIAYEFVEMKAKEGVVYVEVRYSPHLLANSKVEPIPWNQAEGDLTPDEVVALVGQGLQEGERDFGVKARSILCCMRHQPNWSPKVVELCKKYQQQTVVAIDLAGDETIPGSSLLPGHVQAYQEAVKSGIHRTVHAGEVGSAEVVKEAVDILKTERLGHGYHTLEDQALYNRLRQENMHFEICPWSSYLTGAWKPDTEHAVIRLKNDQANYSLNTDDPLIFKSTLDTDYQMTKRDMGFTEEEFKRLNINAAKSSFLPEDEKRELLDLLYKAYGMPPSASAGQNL
Description: In vivo anti-inflammatory activity against adenosine deaminase (ADA) in the adjuvant arthritis model in rat (p.o.)

[6] = AUC in rat after po administration at a dose of 10 mg/kg; assay type: ADME, organism-based; set-up: dose 10 mg/kg, route oral; conditions: plasma, read-out: AUC 0-24h
[7] = In vitro clearance in human liver microsomes; assay type: ADME, Microsome; conditions: read-out: Clearance
[8] = Oral bioavailability in dog (dose 10 mg/kg); assay type: ADME, organism-based, Canis lupus familiaris; conditions: in vivo
[9] = tested on: Mus musculus; assay: Antitumor activity after administration (p.o.) with U937 cells in mice at a dose of 10 mg/kg; assay type: functional, U-937; conditions: route oral
[10] = tested on: Mus musculus; assay: Antitumor activity after administration (p.o.) in mice U937 cells at a dose of 32 mg/kg once daily dosing (u.i.d.); assay type: functional, U-937; conditions: route oral
[11] = Maximum plasma concentration in rat after po administration; assay type: ADME, organism-based; set-up: route oral
[12] = tested on: Mus musculus; assay: Antitumor activity after administration (p.o.) in mice U937 cells at a dose of 32 mg/kg twice daily dosing (b.i.d.); assay type: functional, U-937; conditions: route oral
[13] = tested on: Mus musculus; assay: Antitumor activity after administration (p.o.) in mice U937 cells at a dose of 10 mg/kg twice daily dosing (b.i.d.); assay type: functional, U-937; conditions: route oral
[14] = species on record: Canis familiaris; assay: (§2) In vitro clearance in dog liver microsomes; assay type: ADME, Canis lupus familiaris, Microsome
[15] = species on record: Rattus norvegicus; assay: as §1; assay type: ADME, Microsome
[16] = as §2; assay type: ADME, Canis lupus familiaris, Microsome; conditions: read-out: Clearance
[17] = tested on: Mus musculus; assay: Antitumor activity after administration (i.p.) in mice U937 cells at a dose of 0.025 mg/kg; assay type: functional, U-937; conditions: route intraperitoneal
[18] = tested on: Mus musculus; assay: Antitumor activity after administration (i.p.) in mice U937 cells at a dose of 0.25 mg/kg; conditions: route intraperitoneal
[19] = tested on: Mus musculus; assay: Antitumor activity after administration (i.p.) in mice U937 cells at a dose of 2.5 mg/kg; conditions: route intraperitoneal

Compound: C[C@H](O)[C@@H](CCc1cccc(Cl)c1Cl)n1cnc(C(N)=O)c1
- bioavailability [1]: 44%
- Solubility [2]: 500 µg/mL (≈ 1460 µM)
- half-life [3]: 1.66 h
- CLint scaled [4]: 111 mL/min/kg
- ED30 [5]: 1.6 mg/kg
- AUC [6]: 2110 ng·h/mL
- CLint scaled [7]: 4.5 mL/min/kg
- bioavailability [8]: 43%

Compound: Nc1ncnc2c1ncn2[C@@H]1O[C@H](CO)[C@@H](O)[C@@H]1O [VIDARABINE]
- MST [9]: 23.5 days

Compound: C[C@H](O)[C@@H](CCOc1ccc2ccccc2c1)n1cnc(C(N)=O)c1
- MST [10]: 30 days
- bioavailability [1]: 42%
- Solubility [2]: 80 µg/mL (≈ 236 µM)
- Cmax [11]: 970 ng/mL
- MST [12]: 35.5 days
- half-life [3]: 1.12 h
- CLint scaled [4]: 79 mL/min/kg
- AUC [6]: 1850 ng·h/mL
- CLint scaled [7]: 3.8 mL/min/kg
- MST [13]: 30 days
- bioavailability [8]: 91%
- Clearance [14]: 11 mL/min/kg

Compound: Cn1c(CCC(=O)Nc2ccc3ccn(CC[C@H](CO)n4cnc(C(N)=O)c4)c3c2)nc2ccccc21
- Solubility [2]: 4.2 µg/mL (≈ 8.41 µM)
- Cmax [11]: < 100 ng/mL
- Clearance [15]: 35 mL/min/kg
- AUC [6]: < 100 ng·h/mL
- CLint scaled [7]: 123 mL/min/kg
- CLint scaled [16]: 97 mL/min/kg

Compound: OC[C@H]1O[C@@H](n2cnc3c2N=CNC[C@H]3O)C[C@@H]1O [PENTOSTATIN]
- MST [17]: 28.5 days
- MST [18]: 34 days
- MST [19]: 42.5 days

Compound: C[C@H](O)[C@@H](CCc1cccc2ccccc12)n1cnc(C(N)=O)c1
- bioavailability [1]: 30%
- Solubility [2]: 481 µg/mL (≈ 1490 µM)
- half-life [3]: 0.66 h
- CLint scaled [4]: 307 mL/min/kg
- AUC [6]: 1370 ng·h/mL
- CLint scaled [7]: 45 mL/min/kg
- bioavailability [8]: 38%

Compound: C[C@H](O)[C@@H](CCOc1ccc2ccccc2c1)n1cnc(C(N)=O)c1.Cl
- MST [10]: 38 days
- MST [12]: 42.5 days
- MST [13]: 34 days
